This is an account of results in patent US5308864A, “6-(hydronaphtyl-1-ethyl)-4-hydroxy-3,4,5,6-tetrahydro-2H-pyran-2-ones and the corresponding hydroxy acids” (British Bio-Technology Limited, priority 1989, dated 1994).

Each structure is given as a SMILES string.

In general, IC50 refers to the concentration that gives 50% inhibition.

One assay concerns the target T1, HMG-CoA reductase (Rattus norvegicus, UniProt P51639).
T1 construct: from tissue; host or cells: rat liver microsomes (cholestyramine-induced)
T1 sequence (P51639 1-887): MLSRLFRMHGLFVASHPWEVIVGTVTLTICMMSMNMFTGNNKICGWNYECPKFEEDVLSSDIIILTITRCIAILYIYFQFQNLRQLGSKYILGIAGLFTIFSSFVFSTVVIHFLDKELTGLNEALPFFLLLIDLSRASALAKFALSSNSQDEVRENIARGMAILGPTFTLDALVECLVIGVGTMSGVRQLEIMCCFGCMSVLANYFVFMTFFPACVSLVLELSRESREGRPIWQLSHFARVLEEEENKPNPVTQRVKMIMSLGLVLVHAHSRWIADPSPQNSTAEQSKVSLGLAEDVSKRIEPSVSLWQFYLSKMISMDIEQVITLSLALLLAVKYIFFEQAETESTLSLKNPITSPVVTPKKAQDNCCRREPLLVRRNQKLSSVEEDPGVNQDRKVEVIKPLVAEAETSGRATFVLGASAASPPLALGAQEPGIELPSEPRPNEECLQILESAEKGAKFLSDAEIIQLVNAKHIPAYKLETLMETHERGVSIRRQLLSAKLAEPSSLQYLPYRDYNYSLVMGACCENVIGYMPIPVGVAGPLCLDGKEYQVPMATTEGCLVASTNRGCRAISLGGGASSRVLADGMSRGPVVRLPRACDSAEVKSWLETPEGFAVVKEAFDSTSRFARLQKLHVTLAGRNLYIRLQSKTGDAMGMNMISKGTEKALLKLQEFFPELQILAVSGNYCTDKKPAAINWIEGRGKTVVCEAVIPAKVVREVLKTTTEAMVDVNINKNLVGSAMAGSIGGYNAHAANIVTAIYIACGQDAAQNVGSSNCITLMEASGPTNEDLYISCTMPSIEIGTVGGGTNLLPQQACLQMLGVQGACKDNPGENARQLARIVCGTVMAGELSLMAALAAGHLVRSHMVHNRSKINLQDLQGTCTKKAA
The experiment in a line: In vitro determination of inhibitory potential of HMG-CoA reductase inhibitors (Test A, rat liver microsomal enzyme). In kind it is biochemical. The following applies: HMG-CoA reductase from rat liver microsomes; inhibitors converted to sodium salts.

Assay [1] concerns cholesterol biosynthesis in Human hepatoma (HEP G2) cells. The experiment in a line: Assay for the inhibition of cholesterol biosynthesis in cultured cells (Test B, HEP G2). In kind it is cell-based. The following applies: 2-14C-acetate incorporation, HEP G2, 3 hours at 37° C. The protocol:
ASSAY FOR THE INHIBITION OF CHOLESTEROL BIOSYNTHESIS IN CULTURED CELLS
Human hepatoma (HEP G2) or fibroblastic (HES-9) cells were grown in Dulbecco's modified Eagle's medium (DMEM) with 10% foetal calf serum, in 6 cm tissue culture dishes until approaching confluence (approximately 4 days). The medium was changed to DMEM with 1% foetal calf serum 24 hours prior to experimentation.
Test compounds that are salts were dissolved in aqueous, physiological buffer. Lactones and esters were dissolved in dimethylsulphoxide.
Test compound were added to the cell monolayers concurrently with 2-^14 C-acetate (5 μCi/ml of incubation volume); control samples receiving vehicle together with radioisotope. The incubation was continued for 3 hours at 37° C.
The IC50 for inhibition of sterol synthesis by test compounds was measured from plots of % inhibition (compared to controls) versus log concentration, using at least 5 concentrations of inhibitor.
This assay, therefore, measures the ability of test substances to inhibit intracellular synthesis of cholesterol.

The mark [2] stands for this setting: HepG2, inhibition of sterol synthesis.

Description for HMG-CoA reductase: HMG-CoA reductase was induced in rats by feeding a normal diet supplemented with 3% cholestyramine resin for one week prior to sacrifice. […] Briefly, the livers were immediately placed in ice-cold buffer I (see below) and homogenised in a Potter-Elvehjem type glass/TEFLON homogeniser (10 passes at 1000 rpm). […] The supernatant was centrifuged at 100,000×g for 75 minutes, the microsomal pellet resuspended in buffer II (see below) and centrifuged at 100,000×g for 75 minutes. The resultant pellet was stored at -70° C. until required for assay purposes.
Membrane bound enzyme isolated as above is used for determining the activity of inhibitors. The assay is performed in a total volume of 300 μl in 100 mM KPO4 pH 7.2 buffer, containing 3 mM MgCl2, 5 mM glucose-6-phosphate, 10 mM reduced glutathione, 1mM NADP, 1 unit glucose-6-phosphate dehydrogenase, and 1 mg/ml BSA, with resuspended enzyme. Putative inhibitors are converted to sodium salts, then dissolved in dimethylsulphoxide and 10 μl aliquots added to the incubation.
The assay is pre-incubated at 37° C. for 10 minutes and initiated by the addition of 0.1 μCi 3-hydroxy-3-methyl-[3-^14 C]glutaryl coenzyme A (52 Ci/Mole) followed by incubating the complete reaction at 37° C. for 10 minutes. At the end of this period the reaction is stopped by adding 300 μl of a 10 mM mevalonolactone solution in 0.1 M hydrochloric acid and the mevalonic acid product allowed to lactonise for a further period of 30 minutes. The product is then isolated by chromatography using Bio-Rex 5 resin and the enzyme activity quantified by liquid scintillation spectrophotometry.
Appropriate controls are included in the assay and IC50 values obtained by graphical means.

On to `C/C=C\[C@@H]1C[C@H](OC(=O)[C@@H](C)CC)[C@@H]2[C@@H](CC[C@@H](O)C[C@@H](O)CC(=O)O)[C@@H](C)C=C[C@H]2C1` [Compound B, Sodium (1S,2S,4aR,6S,8S,8aS,3'R,5'R,2"S)-7'-(1,2,4a, 5,6,7,8,8a-octahydro-2-methyl-8[(2"-methyl-1"-oxobutyl)oxy]-6-[(Z)-prop-1-enyl]-1-naphthalenyl)-3',5'-dihydroxyheptanoate], for which the IC50 on HMG-CoA reductase turned out to be 15 nM; in assay [1] (setting [2]) it was 60 nM. With `C/C=C/[C@@H]1C[C@H](OC(=O)[C@@H](C)CC)[C@@H]2[C@@H](CC[C@@H]3C[C@@H](O)CC(=O)O3)[C@@H](C)C=C[C@H]2C1` [Compound G, (1S,2S,4aR,6S,8S,8aS,4'R,6'R,2"S)6'-{2-(1,2,4a,5,6,7,8,8a-octahydro-2-methyl-8[(2"-methyl-1"-oxobutyl)oxy]-6-[(E)-prop-1-enyl]-1-naphthalenyl)ethyl}-tetrahydro-4'-hydroxy-2H-pyran-2'-one], in assay [1] (HepG2, after hydrolysis, inhibition of sterol synthesis), the IC50 worked out at 25 nM. As for `C/C=C/[C@@H]1C[C@H](OC(=O)C(C)(C)CC)[C@@H]2[C@@H](CC[C@@H](O)C[C@@H](O)CC(=O)O)[C@@H](C)C=C[C@H]2C1` [Compound N, Sodium (1S,2S,4aR,6S,8S,8aS,3'R,5'R)-7'-(1,2,4a,5,6,7,8,8a-octahydro-2-methyl-8-[(2"-dimethyl-1"-oxobutyl)oxy]-6-[(E)-prop-1enyl]-1-naphthalenyl)-3',5'-dihydroxyheptanoate], the IC50 stood at 3 nM at HMG-CoA reductase and 7 nM in assay [1] (setting [2]). The like results for `CC[C@H](C)C(=O)O[C@H]1C[C@@H](C)C[C@@H]2C=C[C@H](C)[C@H](CC[C@@H]3C[C@@H](O)CC(=O)O3)[C@@H]12` [Dihydromevinolin, reference compound] were, in that order, 30 nM and 40 nM.
